Source: a melting point compilation (Tetko et al.; mined from patent text by program, amines drawn as free bases though some values may be those of a salt)

Row | SMILES | melting point
1 | CCOC(=O)CCCCC(=O)OCC1=C(C(=O)OCC)C(c2ccccc2Cl)C(C(=O)OCC)=C(C)N1 (stereo not drawn) | 91 to 92 °C
2 | CCCOc1cc2c(cc1OC)C(c1ccc(OC)c(OC)c1)=NN=C(C)C2CC (stereo not drawn) | 110 to 112 °C
3 | COC(=O)CS(=O)(=O)CCC=C1SC=CS1 | 133 to 135 °C
4 | C#CCN(C)c1c(-c2c(F)cc(F)cc2F)c(OC)nc2ncnn12 | 119 °C
5 | NC(Cc1ccccc1-c1ccc(C(=O)N2Cc3ccc(C(=O)NCc4cccnc4)n3Cc3ccccc32)cc1)=NO | 131 to 134 °C
6 | CC(O)=C(C#N)C(=O)c1ccc(F)c(F)c1 | 51 to 54 °C
7 | O=C(NO)[C@H]1CN(C(=O)NC2CCCCC2)CCN1S(=O)(=O)c1ccc(-c2ccc(F)cc2)s1 | 111 to 123 °C
8 | COc1ccc(OC)c(S(=O)(=O)Nc2ccccc2/C=C/c2ccncc2)c1 | 193 to 195 °C
9 | O=S(=O)(O)c1cccc(NCc2cccc(C(F)(F)F)c2)c1 | > 275 °C
10 | C=C(C)C[C@H]1CC(C)=CCN1c1ccccc1 | 55 to 57 °C
11 | CCCc1c(OCCCCCOc2ccc3c(c2CCC)OC(C(=O)OC)CC3)ccc(C(C)=O)c1O (stereo not drawn) | 57 to 58 °C
12 | COc1ccc(C=O)cc1CCl | 55 to 57 °C
13 | CC(CNC(=O)c1ccc(-c2ccc(Cl)cc2)cc1F)c1ccc(CN2CCCC2)cc1 (stereo not drawn) | 119 to 121 °C
14 | c1ccc2c(c1)OCCN1CCOCCN(CCOCC1)CCO2 | 119 to 120 °C
15 | CCCCn1c(=O)c(NC(=O)Nc2c(C(C)C)cccc2C(C)C)c(-c2cccc(OCCC)c2)c2cccnc21 | 154 to 156 °C
16 | COC(=O)c1ccccc1Nc1cc(C(C)(C)C)c(O)c(C(C)(C)C)c1 | 155 to 158 °C
17 | CNC(=NCCn1cc(Cn2ccnc2)c2ccccc21)NC#N | 172 to 173 °C
18 | CC(CSc1cc(C(C)(C)C)c(O)c(C(C)(C)C)c1)C(=O)N1CCCC1 (stereo not drawn) | 125 to 126 °C
19 | N#Cc1ccc2[nH]cc(CCCCN3CCN(c4ccc5oc(C(=O)NO)cc5c4)CC3)c2c1 | 198 to 199 °C
20 | ON=Cc1cc(Br)ccc1OCc1ccccc1 | 132 to 134 °C
21 | O=C(O)CC1CCCC2CC(=O)NC12 (stereo not drawn) | 238 to 240 °C
22 | OC(CN1CCC(CCOC(c2ccccc2)c2ccccc2)C(O)C1)c1ccc(F)cc1 (stereo not drawn) | 84 to 86 °C
23 | Cc1cc(Cn2c(O)nc3c(N)nc(C)c(C)c32)on1 | > 300 °C
24 | O=C(O)CCCOc1cc(C(F)(F)F)cc(C(F)(F)F)c1 | 85 to 87 °C
25 | CCCCNC(=O)NS(=O)(=O)c1ccc(CCNC(=O)N2CCCCC2=O)cc1 | 156 to 158 °C
26 | CCSc1ccc(C(=O)O)c(C(F)(F)F)c1 | 134 °C
27 | Cc1cc(Cl)cc(C(=O)NC(C)C)c1NC(=O)c1cc(Br)nn1-c1ncccc1Cl | 159 to 161 °C
28 | Nc1c(Br)cc(Br)cc1S(N)(=O)=O | 165 to 169 °C
29 | CC(O)C1C(=O)N2C(C(=O)OCc3ccccc3)=CCC12 (stereo not drawn) | 94 to 99 °C
30 | CCC(=Cc1ccc(N(C)C)cc1Cl)[N+](=O)[O-] | 90 to 91 °C

More lines, now with the values ahead:

Row | melting point | SMILES
31 | 224 °C | COc1cc(C(=O)Nc2cc(Oc3ccc4nc(NC(=O)C5CC5)cn4n3)ccc2C)n(C)n1
32 | 173 to 178 °C | COc1ccc(C2=NN(Cn3nnc4ccccc43)C(=O)[C@H]3CCCC[C@@H]23)cc1OC (relative stereo)
33 | 265 to 266 °C | Cc1ccc2c3c(ncc2c1)CCC(=O)N3
34 | 171 to 173 °C | CC(NC(=O)NO)c1ccc2cc(OCc3csc(-c4ccccc4)n3)ccc2c1 (single isomer, unassigned; (-))
35 | 194 to 195 °C | CSc1nc(=O)n(Cc2ccccc2)c2ncn(COCc3ccccc3)c12
36 | 219 °C | O=c1c2ccccc2ccn2ccnc12
37 | 232 to 234 °C | O=C1c2ccccc2C(=O)c2sccc21
38 | 94 to 96 °C | COc1ccc(CNc2c(Cl)cnn(C)c2=O)cc1
39 | 111 to 114 °C | COCOCC1(C)Cc2c(C)c(N3CCN(c4ccc(OC)cc4)CC3)c(C)c(C)c2O1 (stereo not drawn)
40 | 200 to 203 °C | Nc1ccn2nc(-c3cccc(F)c3)nc2c1
41 | 191 to 193 °C | CC(=O)CN1CCN(C(=O)Cn2c(=O)sc3ncc(Cl)cc32)CC1
42 | 236 to 238 °C | C#CCn1c(=O)ccc2cc(F)c(-n3c(=O)cc(C(F)(F)F)n(C)c3=O)cc21
43 | 126 °C | Cc1nc2c(n1C(=O)OC(C)(C)C)CCCC2=O
44 | 159 to 161 °C | BrCc1cccc2c(-c3ccc(Br)cc3)onc12
45 | 195 °C | CCNc1nc(C)c(C(=O)c2ccc(Cl)c([N+](=O)[O-])c2)s1
46 | 174 to 175 °C | c1ccc(N2CCN(c3nc4c(c(NC5CCCCC5)n3)SCC4)CC2)cc1
47 | 196 to 198 °C | CN1CCc2c(cccc2NC(=O)c2ccccc2[N+](=O)[O-])C1
48 | 99 to 101 °C | CC(C)c1cccc(C(C)C)c1NC(=O)CNC(C)c1ccccn1 (stereo not drawn)
49 | 154 to 155 °C | O=C(O)CCc1nc(-c2cc3ccccc3o2)no1
50 | 120 to 123 °C | COc1cc(Nc2c(C#N)cnc3cc(-c4ccc(CN5CCC(O)CC5)s4)ccc23)c(Cl)cc1Cl
51 | 224 to 227 °C | N=C(N)Nc1nc2ccc(OCc3ccccc3)cc2[nH]1
52 | 107 to 108 °C | CC(=O)NCCC1CCc2ccc(O)cc21 (stereo not drawn)

Row | melting point | SMILES
53 | 139 to 140 °C | O=S(=O)(Nc1ccc2c(OCc3ccc(-c4ccc(F)cc4)cc3)cccc2c1)C(F)(F)F
54 | 79 to 81 °C | COC(=O)/C(C)=C/COc1cccc(O)c1
55 | 278 to 283 °C | COc1ccc(C(=O)NC(=O)Nc2ccc3c(c2)NC(=O)/C3=C/c2ccc(Cl)cc2)cc1
56 | 132 to 134 °C | Cc1cccc2[nH]c(C(=O)NCCc3ccc(CCCC(=O)O)cc3)cc12
57 | 238 to 240 °C | CC(C)(C)CNc1ccnc2sc(C(N)=O)c(N)c12
58 | 184 to 186 °C | CSc1nc(=O)cc(C)n1C1CCCCC1
59 | 233 to 234 °C | O=C(O)c1cccc(-c2nc(-c3ccccc3F)no2)c1
60 | 126 °C | COC(=O)CSCc1sccc1S(=O)(=O)N(C)c1cccc2cc(-c3nccs3)[nH]c12
61 | 181 to 182 °C | Cc1cc(=O)[nH]c2nc(OCCCCN3CCN(c4cccc(Cl)c4Cl)CC3)ccc12
62 | 110 to 111 °C | COc1cccc(C2CCCN2CCN2C(=O)c3ccccc3C2=O)c1 (stereo not drawn)
63 | 145 to 147 °C | Cc1cc(C)nc(SCc2nccc(SCCCSc3ccc4ncc([N+](=O)[O-])n4n3)c2C)n1
64 | 75 to 78 °C | COc1ccc(NC(=O)C(F)F)cn1
65 | > 250 °C | CC(C)c1sc2ncnc(N)c2c1-c1ccc(NC(=O)c2ccccc2)cc1
66 | 168 °C | O=S(=O)(c1ccc2c(Cl)cnc(Cl)c2c1)N1CCC[C@@H]1CO
67 | 92 to 94 °C | Cc1nc(Br)sc1C(=O)NCc1ccccc1
68 | 290 to 300 °C | CN(C)S(=O)(=O)c1ccccc1-c1ccc2c(c1)S(=O)(=O)NC(C1CCCCC1)N2 (stereo not drawn)
69 | 199 °C | CCC(C)N1CCc2cnc3ccnn3c21 (stereo not drawn)
70 | 152 °C | Cc1nn(C)c(C)c1C(=O)Nc1cccc2c1CCC2(C)C
71 | 209 to 210 °C | Cc1nc2ccc3cnc(N(C)c4cccc([N+](=O)[O-])c4)nc3c2s1
72 | 276 to 278 °C | CCn1c(=O)c2c(O)cc(=O)oc2c2ccc(Cl)cc21
73 | 160 to 162 °C | CS(=O)(=O)c1ccc(-c2cc3c(cc2Cc2cc(F)cc(F)c2)OCCO3)cc1
